# Results taken from patent publication US8889705B2, “Noscapine analogs and their use in treating cancers” (Emory University, priority 2007, dated 2014).
# pIC50: −log10 of the molar value.
# Columns and labels:
# CEM cells = assay: Cell cycle analysis (propidium iodide, flow cytometry); format: cell-based, human; conditions: 25 μM
# Protocol: (§1) The flow cytometric evaluation of the cell cycle status was performed as described previously (Zhou et al., 2003). Briefly, 2×10^6 cells were centrifuged, washed twice with ice-cold PBS, and fixed in 70% ethanol. Tubes containing the cell pellets were stored at 4° C. for at least 24 hours. Cells were then centrifuged at 1000×g for 10 min and the supernatant was discarded. The pellets were washed twice with 5 ml of PBS and then stained with 0.5 ml of propidium iodide (0.1% in 0.6% Triton-X in PBS) and 0.5 ml of RNase A (2 mg/ml) for 45 minutes in dark. Samples were then analyzed on a FACSCalibur flow cytometer (Beckman Coulter Inc., Fullerton, Calif.).
# CEM/VLB100 cells [1] = assay: as above; format: cell-based, human; conditions: CEM/VLB100, 25 μM
# Protocol: as §1
# CEM/VM-1-5 cells [2] = assay: as above; format: cell-based, human; conditions: CEM/VM-1-5, 25 μM
# Protocol: as §1
# 1A9 cells [3] = assay: as above; format: cell-based, human; conditions: 1A9, 50 μM
# Protocol: as §1
# 1A9/PTX22 cells [4] = assay: as above; format: cell-based, human; conditions: 1A9/PTX22, 50 μM
# Protocol: as §1
# CEM/VLB100 cells [5] = assay: In vitro cell proliferation MTS assay; format: cell-based; conditions: Homo sapiens, CEM/VLB100, 72 hours
# Protocol: (§2) Suspension cells (CEM, CEMNLB100 and CEM/VM-1-5) were cultured in RPMI-1640 media containing 10% FBS and then seeded into 96-well plates at a density of 5×10^3 cells per well and were treated with increasing gradient concentrations of 9-nitro-nos for 72 hours. Measurement of cell proliferation was performed colorimetrically by 3-(4,5-dimethylthiazol-2-yl)-5-(3-carboxymethoxyphenyl)-2-(4-sulphophenyl)-2H-tetrazolium, inner salt (MTS) assay, using the CellTiter96 AQueous One Solution Reagent (Promega, Madison, Wis.). Cells were exposed to MTS for 3 hours and absorbance was measured using a microplate reader (Molecular Devices, Sunnyvale, Calif.) at an optical density (OD) of 490 nm. The percentage of cell survival as a function of drug concentration for both the assays was then plotted to determine the IC50 value, which stands for the drug concentration needed to prevent cell proliferation by 50%.
# CEM/VM-1-5 cells [6] = assay: In vitro cell proliferation MTS assay; format: cell-based; conditions: Homo sapiens, CEM/VM-1-5, 72 hours
# Protocol: as §2
# 1A9 cells [7] = assay: Sulforhodamine B cell proliferation assay; format: cell-based; conditions: Homo sapiens; 1A9, 72 hours, SRB
# Protocol: (§3) Sulforhodamine B assay: The cell proliferation assay was performed in 96-well plates as described previously (Skehan et al., 1990; Zhou et al., 2003). Adherent cells (1A9 and 1A9/PTX22) were seeded in 96-well plates at a density of 5×10^3 cells per well. They were treated with increasing gradient concentrations of 9-nitro-nos the next day while in log-phase growth. After 72 hours of drug treatment, cells were fixed with 50% trichloroacetic acid and stained with 0.4% sulforhodamine B dissolved in 1% acetic acid. Cells were then washed with 1% acetic acid to remove unbound dye. The protein-bound dye was extracted with 10 mM Tris base to determine the optical density at 564-nm wavelength.
# 1A9/PTX22 cells [8] = assay: Sulforhodamine B cell proliferation assay; format: cell-based; conditions: Homo sapiens, 1A9/ptx-22; 1A9/PTX22, 72 hours, SRB
# Protocol: as §3
smiles,measurement,setting,value
"COc1ccc2c(c1OC)C(=O)O[C@@H]2[C@H]1c2c(c([N+](=O)[O-])c3c(c2OC)OCO3)CCN1C [9-nitro-nos, (S)-6,7-dimethoxy-3-((R)-4-methoxy-6-methyl-9-nitro-5,6,7,8-tetrahydro-[1,3]dioxolo[4,5-g]isoquinolin-5-yl)isobenzofuran-1(3H)-one]",G0/G1,CEM cells; 0 h,45.5%
same,G2/M,CEM cells; 0 h,20.9%
same,S,CEM cells; 0 h,25.0%
same,Sub-G1,CEM cells; 0 h,0.25%
same,G0/G1,CEM cells; 24 h,24.8%
same,G2/M,CEM cells; 24 h,34.2%
same,S,CEM cells; 24 h,10.0%
same,Sub-G1,CEM cells; 24 h,6.5%
same,G0/G1,CEM cells; 48 h,19.7%
same,G2/M,CEM cells; 48 h,40.0%
same,S,CEM cells; 48 h,8.1%
same,Sub-G1,CEM cells; 48 h,23.8%
same,G0/G1,CEM cells; 72 h,13.9%
same,G2/M,CEM cells; 72 h,16.9%
same,S,CEM cells; 72 h,8.9%
same,Sub-G1,CEM cells; 72 h,44.3%
same,G0/G1,CEM/VLB100 cells [1]; 0 h,46.9%
same,G2/M,CEM/VLB100 cells [1]; 0 h,25.7%
same,S,CEM/VLB100 cells [1]; 0 h,17.6%
same,Sub-G1,CEM/VLB100 cells [1]; 0 h,3.6%
same,G0/G1,CEM/VLB100 cells [1]; 24 h,25.5%
same,G2/M,CEM/VLB100 cells [1]; 24 h,36.0%
same,S,CEM/VLB100 cells [1]; 24 h,17.7%
same,Sub-G1,CEM/VLB100 cells [1]; 24 h,14.8%
same,G0/G1,CEM/VLB100 cells [1]; 48 h,23.7%
same,G2/M,CEM/VLB100 cells [1]; 48 h,30.2%
same,S,CEM/VLB100 cells [1]; 48 h,9.3%
same,Sub-G1,CEM/VLB100 cells [1]; 48 h,30.7%
same,G0/G1,CEM/VLB100 cells [1]; 72 h,8.7%
same,G2/M,CEM/VLB100 cells [1]; 72 h,12.5%
same,S,CEM/VLB100 cells [1]; 72 h,4.5%
same,Sub-G1,CEM/VLB100 cells [1]; 72 h,56.1%
same,G0/G1,CEM/VM-1-5 cells [2]; 0 h,36.0%
same,G2/M,CEM/VM-1-5 cells [2]; 0 h,30.7%
same,S,CEM/VM-1-5 cells [2]; 0 h,19.4%
same,Sub-G1,CEM/VM-1-5 cells [2]; 0 h,3.4%
same,G0/G1,CEM/VM-1-5 cells [2]; 24 h,25.4%
same,G2/M,CEM/VM-1-5 cells [2]; 24 h,41.0%
same,S,CEM/VM-1-5 cells [2]; 24 h,13.0%
same,Sub-G1,CEM/VM-1-5 cells [2]; 24 h,18.8%
same,G0/G1,CEM/VM-1-5 cells [2]; 48 h,13.7%
same,G2/M,CEM/VM-1-5 cells [2]; 48 h,15.0%
same,S,CEM/VM-1-5 cells [2]; 48 h,11.0%
same,Sub-G1,CEM/VM-1-5 cells [2]; 48 h,58.0%
same,G0/G1,CEM/VM-1-5 cells [2]; 72 h,10.5%
same,G2/M,CEM/VM-1-5 cells [2]; 72 h,12.2%
same,S,CEM/VM-1-5 cells [2]; 72 h,8.7%
same,Sub-G1,CEM/VM-1-5 cells [2]; 72 h,63.0%
same,G0/G1,1A9 cells [3]; 0 h,50.0%
same,G2/M,1A9 cells [3]; 0 h,21.2%
same,S,1A9 cells [3]; 0 h,21.8%
same,Sub-G1,1A9 cells [3]; 0 h,0.7%
same,G0/G1,1A9 cells [3]; 24 h,30.6%
same,G2/M,1A9 cells [3]; 24 h,34.2%
same,S,1A9 cells [3]; 24 h,14.3%
same,Sub-G1,1A9 cells [3]; 24 h,12.0%
same,G0/G1,1A9 cells [3]; 48 h,28.6%
same,G2/M,1A9 cells [3]; 48 h,17.2%
same,S,1A9 cells [3]; 48 h,10.6%
same,Sub-G1,1A9 cells [3]; 48 h,38.0%
same,G0/G1,1A9 cells [3]; 72 h,16.7%
same,G2/M,1A9 cells [3]; 72 h,9.0%
same,S,1A9 cells [3]; 72 h,9.6%
same,Sub-G1,1A9 cells [3]; 72 h,56.3%
same,G0/G1,1A9/PTX22 cells [4]; 0 h,57.0%
same,G2/M,1A9/PTX22 cells [4]; 0 h,20.4%
same,S,1A9/PTX22 cells [4]; 0 h,8.8%
same,Sub-G1,1A9/PTX22 cells [4]; 0 h,3.5%
same,G0/G1,1A9/PTX22 cells [4]; 24 h,27.3%
same,G2/M,1A9/PTX22 cells [4]; 24 h,31.4%
same,S,1A9/PTX22 cells [4]; 24 h,4.7%
same,Sub-G1,1A9/PTX22 cells [4]; 24 h,30.0%
same,G0/G1,1A9/PTX22 cells [4]; 48 h,5.9%
same,G2/M,1A9/PTX22 cells [4]; 48 h,44.3%
same,S,1A9/PTX22 cells [4]; 48 h,3.4%
same,Sub-G1,1A9/PTX22 cells [4]; 48 h,44.6%
same,G0/G1,1A9/PTX22 cells [4]; 72 h,14.1%
same,G2/M,1A9/PTX22 cells [4]; 72 h,13.7%
same,S,1A9/PTX22 cells [4]; 72 h,5.7%
same,Sub-G1,1A9/PTX22 cells [4]; 72 h,59.0%
same,pIC50,CEM/VLB100 cells [5],5.09
same,pIC50,CEM/VM-1-5 cells [6],5.16
same,pIC50,1A9 cells [7],4.52
same,pIC50,1A9/PTX22 cells [8],4.56
